Here are results for five compounds from patent publication US4962113A, “Pyridinium derivatives, their production and use” (Takeda Chemical Industries, Ltd, priority 1987, dated 1990).

Like-named read-outs stand apart in the source and are kept apart here.

In data set [1] the test system is platelet aggregation (PAF). Nature of the data set: Inhibitory action on PAF-induced rabbit platelet aggregation. The class given is cell-based. The following applies: Oryctolagus cuniculus, read-out: inhibitory percentage (platelet aggregation); for inhibition at 3 µM: 3 × 10^-6 M; for inhibition at 0.3 µM: 3 × 10^-7 M; for inhibition at 0.03 µM: 3 × 10^-8 M. On the procedure: Blood was collected directly from the hearts of male rabbits using a syringe containing, as an anticoagulant, 3.15% citric acid (one part to 9 parts of blood). The blood was subjected to centrifuge at 800 rpm for ten minutes at room temperature to obtain platelet rich plasma (PRP). The remaining blood was further subjected to centrifuge at 3000 rpm for ten minnutes to separate platelet poor plasma (PPP) as the supernatant. PRP was diluted with PPP, and the number of platelets was adjusted to about 500,000/ μl. This PRP(250 μl) was stirred for two minutes at 37° C., and there was added a test sample, and the mixture was stirred for further two minutes, followed by addition of PAF of a given concentration. Platelet aggregation was examined by means of a platelet-agglutometer (manufactured by Rika Denki). Platelet aggregation preventing action of the test sample was determined based on the maximum percent light transmission (maximum percent. agglutination).

A short description of another data set: Acute Toxicity Test. The conditions noted are these: oral, 1000 mg/kg, until after one week. The class given is in vivo. On the procedure: Male Jcl-ICR mice (5 wk) were used in groups of five individuals. The animals of the respective groups were orally administered with the compounds (227), (236) and (303) respectively produced in Production Examples 87, 90 and 109 at the dose of 1000 mg/kg.

A further data set deals with PAF-induced hypotension. Put plainly: Inhibitory action on PAF-induced hypotension in rats. The class given is in vivo, rat (Sprague-Dawley). The conditions noted are these: Rattus norvegicus, read-out: Inhibitory Rate (Lowering of Blood Pressure); for inhibition in vivo at 0.01 mg/kg / inhibition in vivo at 0.03 mg/kg / inhibition in vivo at 0.1 mg/kg: iv; for inhibition in vivo at 1 mg/kg / inhibition in vivo at 3 mg/kg: oral. The protocol:
Sprague-Dawley male rats, each weighing about 250 g, were subjected to the experiment. The rats were cannulated on the side of femoral artery for measuring the blood pressure, and on the side of femoral vein for administering the drug. The blood pressure was measured through a pressure transducer and recorded. First, PAF (1 μg/kg) was administered intravenously (i.v.) to examine the extent of lowering of blood pressure. Then, the test samples were administered intravenously or orally. […]
The inhibitory action on PAF-induced hypotension (% inhibition) is indicated as the ratio of blood pressure-lowering degree (Δ mmHg) induced by PAF after administration of test samples relative to blood pressure-lowering degree (Δ mmHg) induced by PAF before administration of test samples.

With `CCC[n+]1cc(Br)cc(C(=O)N(CCC(=O)NCCOC(=O)N2CCc3ccccc3C2)c2ccccc2)c1` [Production Example 87, 5-Bromo-3-[N-[2-[[2-(1,2,3,4-tetrahydroisoquinolyl)carbonyloxy]ethyl]carbamoyl]ethyl-N-phenyl]carbamoyl-1-propylpyridinium chloride], in data set [1], the inhibition at 3 µM was 100%. For the same compound, the inhibition at 0.3 µM in data set [1] worked out at 100%. In addition, the inhibition at 0.03 µM in data set [1] is 49%. Besides, in the data set “Acute Toxicity Test”, the death of mice result was “No death of mice was observed”. Moreover, the inhibition in vivo at 0.01 mg/kg turned out to be 64% in the data set on PAF-induced hypotension (1 hr.); 51% in the data set with PAF-induced hypotension (2 hr.); 41% with PAF-induced hypotension (4 hr.); 30% in the data set on PAF-induced hypotension (6 hr.); 23% in the data set on PAF-induced hypotension (8 hr.); 91% in the data set with PAF-induced hypotension (5 min, i.v., 5 min.). In addition, the inhibition in vivo at 1 mg/kg with PAF-induced hypotension (1 hr.) turned out to be 57%; in the data set on PAF-induced hypotension (2 hr.), 76%; in the data set with PAF-induced hypotension (4 hr.), 86%; in the data set on PAF-induced hypotension (6 hr.), 74%; in the data set with PAF-induced hypotension (8 hr.), 63%. Also, the inhibition in vivo at 3 mg/kg with PAF-induced hypotension (1 hr.) turned out to be 100%; in the data set on PAF-induced hypotension (2 hr.) it was 97%; with PAF-induced hypotension (4 hr.), 99%; in the data set with PAF-induced hypotension (6 hr.), 93%; in the data set with PAF-induced hypotension (8 hr.) it was 88%.
On to `CCC[n+]1cc(Cl)cc(C(=O)N(CCC(=O)NCCOC(=O)N2CCc3ccccc3C2)c2ccccc2)c1` [Production Example 88, 5-Chloro-3-[N-[2-[[2-(1,2,3,4-tetrahydroisoquinolyl)carbonyloxy]ethyl]carbamoyl]ethyl-N-phenyl]carbamoyl-1-propylpyridinium chloride], for which the inhibition at 3 µM in data set [1] amounted to 100%. In addition, the inhibition at 0.3 µM in data set [1] was 100%. In addition, the inhibition at 0.03 µM in data set [1] was 33%. Moreover, the inhibition in vivo at 0.01 mg/kg with PAF-induced hypotension (1 hr.) is 59%; with PAF-induced hypotension (2 hr.) it was 55%; with PAF-induced hypotension (4 hr.), 40%; in the data set on PAF-induced hypotension (6 hr.), 25%; in the data set on PAF-induced hypotension (8 hr.), 19%; in the data set with PAF-induced hypotension (5 min, i.v., 5 min.), 95%. Besides, the inhibition in vivo at 1 mg/kg in the data set on PAF-induced hypotension (1 hr.) amounted to 70%; in the data set on PAF-induced hypotension (2 hr.), 75%; in the data set with PAF-induced hypotension (4 hr.) it was 73%; in the data set with PAF-induced hypotension (6 hr.), 61%; with PAF-induced hypotension (8 hr.), 58%. The inhibition in vivo at 3 mg/kg came to 93% in the data set with PAF-induced hypotension (1 hr.); 95% with PAF-induced hypotension (2 hr.); 98% in the data set on PAF-induced hypotension (4 hr.); 83% with PAF-induced hypotension (6 hr.); 85% with PAF-induced hypotension (8 hr.).
In the case of `CCC[n+]1cc(Br)cc(C(=O)N(CCOC(=O)NCCOC(=O)Nc2cccc3ccccc23)c2cccc(OC)c2)c1` [Production Example 94, 5-Bromo-3-[N-(3-methoxyphenyl)-N-[2-[2-(1-naphthylcarbamoyloxy)ethyl]carbamoyloxy]ethyl]carbamoyl-1-propylpyridinium chloride], in data set [1], the inhibition at 3 µM was 100%. In addition, the inhibition at 0.3 µM in data set [1] came out at 99%. Also, in data set [1], the inhibition at 0.03 µM is 10%. Also, the inhibition in vivo at 0.03 mg/kg in the data set on PAF-induced hypotension (1 hr.) was 94%; in the data set with PAF-induced hypotension (2 hr.), 86%; with PAF-induced hypotension (4 hr.), 70%; in the data set with PAF-induced hypotension (6 hr.), 63%; in the data set on PAF-induced hypotension (8 hr.), 52%; in the data set with PAF-induced hypotension (5 min, i.v., 5 min.) it was 100%. Moreover, the inhibition in vivo at 1 mg/kg in the data set on PAF-induced hypotension (1 hr.) was determined as 27%; in the data set with PAF-induced hypotension (2 hr.), 34%; with PAF-induced hypotension (4 hr.), 50%; in the data set with PAF-induced hypotension (6 hr.), 50%; in the data set on PAF-induced hypotension (8 hr.), 40%. Further, the inhibition in vivo at 3 mg/kg with PAF-induced hypotension (1 hr.) is 67%; in the data set with PAF-induced hypotension (2 hr.), 89%; in the data set on PAF-induced hypotension (4 hr.) it was 93%; in the data set on PAF-induced hypotension (6 hr.) it was 97%; in the data set on PAF-induced hypotension (8 hr.), 90%.
In the case of `CCC[n+]1cc(Br)cc(C(=O)N(CCC(=O)NCCNS(=O)(=O)c2ccc3ccccc3c2)c2ccccc2)c1` [Production Example 98, 5-Bromo-3-[N-[2-[2-(2-naphthylsulfonamidoethyl]carbamoyl]ethyl-N-phenyl]carbamoyl-1-propylpyridinium chloride], the inhibition at 3 µM in data set [1] amounted to 100%. For the same compound, the inhibition at 0.3 µM in data set [1] was 100%. Moreover, the inhibition at 0.03 µM in data set [1] was 16%. Moreover, the inhibition in vivo at 1 mg/kg came to 70% in the data set on PAF-induced hypotension (1 hr.); 74% in the data set on PAF-induced hypotension (2 hr.); 74% in the data set with PAF-induced hypotension (4 hr.); 70% in the data set with PAF-induced hypotension (6 hr.); 69% in the data set on PAF-induced hypotension (8 hr.). Also, the inhibition in vivo at 3 mg/kg in the data set with PAF-induced hypotension (1 hr.) was 87%; with PAF-induced hypotension (2 hr.), 91%; in the data set on PAF-induced hypotension (4 hr.), 93%; with PAF-induced hypotension (6 hr.), 93%; with PAF-induced hypotension (8 hr.), 89%.
`CCC[n+]1cc(Br)cc(C(=O)N(CCC(=O)NCCNC(=O)c2cccc3ccccc23)c2ccccc2)c1` [Production Example 108, 5-Bromo-3-[N-[2-[2-(1-naphthoylamino)ethyl]carbamoyl]ethyl-N-phenyl]carbamoyl-1-propylpyridinium chloride]: the inhibition at 3 µM in data set [1] came to 100%. Besides, the inhibition at 0.3 µM in data set [1] was found to be 37%. Besides, the inhibition at 0.03 µM in data set [1] was found to be 5%. Moreover, the inhibition in vivo at 0.1 mg/kg in the data set on PAF-induced hypotension (1 hr.) was 100%; with PAF-induced hypotension (2 hr.) it was 97%; in the data set with PAF-induced hypotension (4 hr.), 75%; with PAF-induced hypotension (6 hr.), 58%; in the data set on PAF-induced hypotension (8 hr.), 45%; in the data set on PAF-induced hypotension (5 min, i.v., 5 min.) it was 100%. In addition, the inhibition in vivo at 1 mg/kg in the data set with PAF-induced hypotension (1 hr.) amounted to 64%; with PAF-induced hypotension (2 hr.), 61%; with PAF-induced hypotension (4 hr.) it was 55%; in the data set on PAF-induced hypotension (6 hr.) it was 51%; with PAF-induced hypotension (8 hr.), 42%. The inhibition in vivo at 3 mg/kg with PAF-induced hypotension (1 hr.) was 92%; in the data set with PAF-induced hypotension (2 hr.), 86%; in the data set with PAF-induced hypotension (4 hr.) it was 94%; in the data set with PAF-induced hypotension (6 hr.) it was 94%; in the data set on PAF-induced hypotension (8 hr.), 72%.
